Source: patent US20250205181A1 (CZAP RESEARCH AND DEVELOPMENT, LLC, priority 2021, published 2025)

Columns and labels:
CB2 receptor = CB2 receptor (Mus musculus, UniProt P47936); conditions: literature value, Lin et al., J Med Chem 1998; cited from earlier work
[1] = Self-reported erectogenic effect / blood flow when tumescent in subject (Examples 1 and 2); format: in vivo, human; conditions: in conjunction with the 25 mg dosing of the anandamide CD formulation
Experimental: The subject had been taking various amounts of sildenafil for many years at 10-25 mg increments.
The subject of Example 1 determined that the combined use of these formulations permitted controlled dosing with bolus and/extended release regimens.

Chain of CB2 receptor (P47936 whole entry): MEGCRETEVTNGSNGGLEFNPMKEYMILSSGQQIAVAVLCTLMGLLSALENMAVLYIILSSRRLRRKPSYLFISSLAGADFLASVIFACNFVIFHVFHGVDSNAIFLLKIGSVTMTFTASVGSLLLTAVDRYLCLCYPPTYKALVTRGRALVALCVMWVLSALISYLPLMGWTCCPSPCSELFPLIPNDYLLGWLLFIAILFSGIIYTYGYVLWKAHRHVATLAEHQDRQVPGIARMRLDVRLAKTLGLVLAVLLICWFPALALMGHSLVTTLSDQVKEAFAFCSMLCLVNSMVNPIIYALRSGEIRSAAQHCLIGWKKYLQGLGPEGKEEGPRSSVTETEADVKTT

For `CCCCC/C=C\C/C=C\C/C=C\C/C=C\CCCC(=O)NCCO` [anandamide, (5Z,8Z,11Z,14Z)-N-(2-hydroxyethyl)icosa-5,8,11,14-tetraenamide], the Ki (CB2 receptor) is given as over 1 µM.

With `CCCc1nn(C)c2c(=O)[nH]c(-c3cc(S(=O)(=O)N4CCN(C)CC4)ccc3OCC)nc12` [sildenafil] the “effect of 10 mg sildenafil in conjunction with anandamide CD versus 25 mg sildenafil before anandamide CD supplementation” value [1] was “more noticeable results”.
